From patent US10077288B2, “Hydroxystatin derivatives for the treatment of arthrosis” (Merck Patent GmbH, priority 2012, dated 2018)

Assays:
[1] = molecular target: T1, cathepsin D isolated from the human liver (Homo sapiens, UniProt P07339); experiment: In-vitro fluorescence assay for identification of cathepsin D inhibitors; format: biochemical; settings: human liver cathepsin D 1.4 nM, pH 5.5; read-out: CatD assay IC50-(M)
T1 construct: cathepsin D isolated from the human liver (Sigma-Aldrich); purchased Sigma-Aldrich; host or cells: human liver (tissue-derived, not recombinant)
Description: EXAMPLE 4: IN-VITRO FLUORESCENCE ASSAY FOR IDENTIFICATION OF CATHEPSIN D INHIBITORS
In order to identify modulators of cathepsin D activity, a continuous enzymatic test was carried out with a synthetic peptide which carries a fluorescent group (MCA=(7-methoxycoumarin-4-yl)acetyl) which is quenched by energy transfer from a Dpn (2,4 dinitrophenyl) group on the same molecule, in Greiner 384-well nb microtitre plates. Cleavage of the peptidic substrate by cathepsin D causes an increase in the fluorescence intensity. In order to determine the efficacy of substances, the time-dependent increase in the fluorescence intensity in the presence of the substance was compared with the time-dependent increase in fluorescence in the absence of substances. The reference substance used was pepstatin A (Sigma-Aldrich). The substrate used was MCA-GKPILFFRLK(Dnp)d-R—NH2 (Enzo Life Sciences, Lörrach). The enzyme employed was cathepsin D isolated from the human liver (Sigma-Aldrich) in a final concentration of 1.4 nM. The test was carried out in 100 mM sodium acetate buffer, 1.25% (v/v) of DMSO, 0.25% (w/v) of Chaps, pH 5.5. 2 μl of each substance solution with serially diluted substance concentration were added to in each case 4 μl of cathepsin D solution and incubated at room temperature for 10 min. The reaction was started by addition of 2 μl of substrate solution (final concentration 5 μM). After carrying out a starting-point fluorescence measurement (excitation wavelength 340 nm/emission wavelength 450 nm) using an Envision multilabel reader (Perkin Elmer), the reaction was incubated at room temperature for 60 min. The amount of peptide fragment cleaved off during the reaction time was subsequently measured by determination of the increase in the fluorescence intensity at 450 nm (excitation wavelength 340 nm).

recombinant human renin = molecular target: T2, recombinant human renin (Homo sapiens, UniProt P00797); experiment: In-vitro fluorescence assay for identification of renin-inhibitory activity; format: biochemical; settings: recombinant human renin 10 nM, FRET substrate 5 μM, pH 7.2; read-out: Renin selectivity IC50
T2 construct: purchased Proteos, Kalamazoo, Mich
T2 sequence (P00797 67-406): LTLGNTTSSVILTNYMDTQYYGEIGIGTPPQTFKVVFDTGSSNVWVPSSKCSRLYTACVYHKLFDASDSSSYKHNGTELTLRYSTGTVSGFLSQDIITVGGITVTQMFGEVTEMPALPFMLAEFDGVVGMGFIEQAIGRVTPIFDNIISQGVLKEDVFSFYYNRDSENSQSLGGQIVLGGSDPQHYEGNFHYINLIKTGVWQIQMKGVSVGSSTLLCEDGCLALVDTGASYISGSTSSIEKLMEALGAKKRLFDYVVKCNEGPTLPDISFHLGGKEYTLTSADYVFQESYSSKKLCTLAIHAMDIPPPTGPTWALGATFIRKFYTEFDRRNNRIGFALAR
Description: EXAMPLE 8: IN-VITRO FLUORESCENCE ASSAY FOR IDENTIFICATION OF RENIN-INHIBITORY ACTIVITY
In order to identify modulators of renin activity, a continuous enzymatic test was carried out with a synthetic peptide which carries a fluorescent group Edans (=(5-(aminoethyl)aminonaphthalenesulfonate) which is quenched by energy transfer from a Dabcyl (4′-dimethylaminoazobenzene-4-carboxylate) group on the same molecule, in Greiner 384-well microtitre plates. Cleavage of the peptidic substrate by renin causes an increase in the fluorescence intensity. In order to determine the efficacy of substances, the time-dependent increase in the fluorescence intensity in the presence of the substance was compared with the time-dependent increase in fluorescence in the absence of substances. The reference substance used was renin inhibitor 2 (Z-Arg-Arg-Pro-Phe-His-Sta-Ile-His N-Boc-Lys methyl ester Z) (Sigma-Aldrich). The substrate used was renin FRET substrate I (DABCYL-g-Abu-Ile-His-Pro-Phe-His-Leu-Val-Ile-His-Thr-EDANS) (Anaspec, Fremont Calif.). The enzyme employed was recombinant human renin (Pro-teos, Kalamazoo, Mich.) in a final concentration of 10 nM. The test was carried out in 50 mM Mops buffer, 1.5% (v/v) of DMSO, 0.1% (w/v) of Igepal®, pH 7.2, 0.5% (w/v) of BSA. 2 μl of each substance solution with serially diluted substance concentration were added to in each case 4 μl of renin solution and incubated at room temperature for 15 min. The reaction was started by addition of 4 μl of substrate solution (final concentration 5 μM). After carrying out a starting-point fluorescence measurement (excitation wavelength 340 nm/emission wavelength 495 nm) using an Envision multilabel reader (Perkin Elmer), the reaction was incubated at 37° C. for 60 min. The amount of peptide fragment cleaved off during the reaction time was subsequently measured by determination of the increase in the fluorescence intensity at 495 nm (excitation wavelength 340 nm).
Result: all compounds measured have an IC50 of the renin selectivity of >30 μM (see Table 2 in Example 1).

T1 sequence (P07339 65-161 limits assumed): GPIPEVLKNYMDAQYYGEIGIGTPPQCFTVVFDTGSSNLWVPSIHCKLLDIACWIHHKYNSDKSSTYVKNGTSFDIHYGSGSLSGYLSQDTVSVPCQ
T1 sequence (P07339 169-412 limits assumed): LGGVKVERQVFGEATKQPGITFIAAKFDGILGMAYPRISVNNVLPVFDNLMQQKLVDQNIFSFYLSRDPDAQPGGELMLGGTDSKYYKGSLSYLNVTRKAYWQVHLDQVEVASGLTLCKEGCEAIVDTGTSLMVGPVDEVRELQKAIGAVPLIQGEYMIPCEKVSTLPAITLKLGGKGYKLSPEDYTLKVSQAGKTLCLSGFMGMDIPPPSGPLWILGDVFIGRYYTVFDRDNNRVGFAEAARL

With CC[C@H](C)[C@H](NC(=O)C[C@H](O)[C@H](Cc1ccccc1)NC(=O)[C@@H](NC(=O)CCc1ccccc1)C(C)C)C(=O)N[C@H](C(=O)OCc1ccccc1)C(C)C [Compound 1, benzly (S)-2-((2S,3S)-2-{(3S,4S)-3-hydroxy-4-[(S)-3-methyl-2-(3-phenylpropionylamino)butyrylamino]-5-phenylpentanoylamino}-3-methylpentanoylamino)-3-methylbutyrate] the IC50 [1] was 7.9e-08 M and the IC50 (recombinant human renin) was greater than 30000 nM.

CC[C@H](C)[C@H](NC(=O)C[C@H](O)[C@H](Cc1ccccc1)NC(=O)[C@@H](NC(=O)C(C)(C)Oc1ccc2ccccc2c1)C(C)C)C(=O)N[C@H](C(=O)OCc1ccccc1)C(C)C [Compound 3, benzly (S)-2-[(2S,3S)-2-((3S,4S)-3-hydroxy-4-{(S)-3-methyl-2-[2-methyl-2-(naphthalen-2-yloxy)propionylamino]butyrylamino}-5-phenylpentanoylamino)-3-methylpentanoylamino]-3-methylbutyrate] showed an IC50 [1] of 2.3e-07 M and an IC50 (recombinant human renin) greater than 30000 nM.

Work on CC[C@H](C)[C@H](NC(=O)C[C@H](O)[C@H](Cc1ccccc1)NC(=O)[C@@H](NC(=O)Cc1ccc(OC)cc1)C(C)C)C(=O)N[C@H](C(=O)O)C(C)C [Compound 15, (S)-2-[(2S,3S)-2-((3S,4S)-3-hydroxy-4-{(S)-2-[2-(4-methoxyphenyl)-acetylamino]-3-methylbutyrylamino}-5-phenylpentanoylamino)-3-methylpentanoylamino]-3-methylbutyric acid] yielded an IC50 [1] of 3.9e-08 M and an IC50 (recombinant human renin) greater than 30000 nM.

CC[C@H](C)[C@H](NC(=O)C[C@H](O)[C@H](Cc1ccccc1)NC(=O)[C@@H](NC(=O)Cc1ccccc1OC)C(C)C)C(=O)N[C@H](C(=O)O)C(C)C [Compound 28, (S)-2-[(2S,3S)-2-((3S,4S)-3-hydroxy-4-{(S)-2-[2-(2-methoxyphenyl)-acetylamino]-3-methylbutyrylamino}-5-phenylpentanoylamino)-3-methylpentanoylamino]-3-methylbutyric acid] gave an IC50 [1] of 1.6e-07 M and an IC50 (recombinant human renin) greater than 30000 nM.

Molecule CC[C@H](C)[C@H](NC(=O)C[C@H](O)[C@H](Cc1ccccc1)NC(=O)[C@@H](NC(=O)[C@H](CC(C)C)NC(=O)CC(C)C)C(C)C)C(=O)NC1CCCC1 [Compound 46, N-((1S,2S)-1-cyclopentylcarbamoyl-2-methylbutyl)-(2S,5S)-3-hydroxy-4-{(S)-3-methyl-2-[(S)-4-methyl-2-(3-methylbutyrylamino)-pentanoylamino]butyrylamino}-5-phenylpentanamide] has an IC50 [1] of 1.8e-09 M.

For CCC(CC)NC(=O)[C@@H](NC(=O)C[C@H](O)[C@H](Cc1ccccc1)NC(=O)[C@@H](NC(=O)[C@H](CC(C)C)NC(=O)CC(C)C)C(C)C)C(C)C [Compound 47, N—[(S)-1-(1-ethylpropylcarbamoyl)-2-methylpropyl]-(3S,4S)-3-hydroxy-4-{(S)-3-methyl-2-[(S)-4-methyl-2-(3-methylbutyrylamino)-pentanoylamino]butyrylamino}-5-phenylpentanamide], the IC50 [1] was 6.5e-10 M.

Molecule CCC[C@H](NC(=O)C[C@H](O)[C@H](Cc1ccccc1)NC(=O)[C@@H](NC(=O)[C@H](CC(C)C)NC(=O)CC(C)C)C(C)C)C(=O)NC(CC)CC [Compound 48, N—[(S)-1-(1-ethylpropylcarbamoyl)butyl]-(3S,4S)-3-hydroxy-4-{(S)-3-methyl-2-[(S)-4-methyl-2-(3-methylbutyrylamino)pentanoylamino]-butyrylamino}-5-phenylpentanamide] has an IC50 [1] of 2.6e-10 M.

CC[C@H](C)[C@H](NC(=O)C[C@H](O)[C@H](Cc1ccccc1)NC(=O)[C@@H](NC(=O)[C@H](CC(C)C)NC(=O)CC(C)C)C(C)C)C(=O)NC(C)(C)CCO [Compound 49, N-[(1S,2S)-1-(3-hydroxy-1,1-dimethylpropylcarbamoyl)-2-methylbutyl]-(3S,4S)-3-hydroxy-4-{(S)-3-methyl-2-[(S)-4-methyl-2-(3-methylbutyrylamino)pentanoylamino]butyrylamino}-5-phenylpentanamide] gave an IC50 [1] of 2.1e-10 M.
